From PubChem BioAssay AID248 (DTP/NCI, 2004)
Values joined by “and” are separate entries in the source; they are usually repeats but may differ in a detail not shown here. Equal values may be shown once. Inconclusive results and toxic doses are left out. No stated cut-off is given here; in the data, active means T/C of 150% or more; inactive means T/C below 125%.

System: L1210 leukemia ip in BDF1 mice, survival T/C
Assay: NCI In Vivo Anticancer Drug Screen. Data for tumor model L1210 Leukemia (intraperitoneal) in B6D2F1 (BDF1) mice
Conditions: endpoint: mean survival time, higher = longer survival
Outline: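 In this screen, tumor-bearing mice given compound are compared to those given vehicle, and their survival values are reported as a treated-to-control quotient.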

[1] = dose: 100.0 mg/kg/injection, schedule: Q04DX003 (ip), vehicle: saline with Tween-80
[2] = dose: 200.0 mg/kg/injection, schedule: Q04DX003 (ip), vehicle: saline with Tween-80
[3] = dose: 400.0 mg/kg/injection, schedule: Q04DX003 (ip), vehicle: saline with Tween-80
[4] = dose: 100.0 mg/kg/injection, schedule: Q01DX001 (ip), vehicle: saline
[5] = dose: 200.0 mg/kg/injection, schedule: Q01DX001 (ip), vehicle: saline
[6] = dose: 400.0 mg/kg/injection, schedule: Q01DX001 (ip), vehicle: saline
[7] = dose: 100.0 mg/kg/injection, schedule: Q01DX001 (ip), vehicle: Klucel (hydroxypropylcellulose) (HPC)
[8] = dose: 100.0 mg/kg/injection, schedule: Q01DX009 (ip), vehicle: Klucel (hydroxypropylcellulose) (HPC)
[9] = dose: 200.0 mg/kg/injection, schedule: Q01DX009 (ip), vehicle: Klucel (hydroxypropylcellulose) (HPC)
[10] = dose: 400.0 mg/kg/injection, schedule: Q01DX009 (ip), vehicle: Klucel (hydroxypropylcellulose) (HPC)
[11] = dose: 100.0 mg/kg/injection, schedule: Q04DX003 (ip), vehicle: Klucel (hydroxypropylcellulose) (HPC)
[12] = dose: 200.0 mg/kg/injection, schedule: Q04DX003 (ip), vehicle: Klucel (hydroxypropylcellulose) (HPC)
[13] = dose: 400.0 mg/kg/injection, schedule: Q04DX003 (ip), vehicle: Klucel (hydroxypropylcellulose) (HPC)
[14] = dose: 50.0 mg/kg/injection, schedule: Q01DX001 (sc), vehicle: steriod suspending solution
[15] = dose: 100.0 mg/kg/injection, schedule: Q01DX001 (sc), vehicle: steriod suspending solution
[16] = dose: 200.0 mg/kg/injection, schedule: Q01DX001 (sc), vehicle: steriod suspending solution
[17] = dose: 400.0 mg/kg/injection, schedule: Q01DX001 (sc), vehicle: steriod suspending solution

Measured: T/C

Cc1ccc(S(=O)(=O)OCCCOS(=O)(=O)c2ccc(C)cc2)cc1
inactive: [1] 96 % of control | [2] 102 % of control | [3] 98 % of control

CC(O)C(=O)COP(=O)(O)O (centres undefined)
inactive: [4] 96 % of control | [5] 102 % of control | [6] 96 % of control

CCOC=Nc1cc[n+]([O-])nc1C
inactive: dose: 43.75 mg/kg/injection, schedule: Q04DX002 (ip), vehicle: saline 104 % of control | dose: 87.5 mg/kg/injection, schedule: Q04DX002 (ip), vehicle: saline 104 % of control | dose: 175.0 mg/kg/injection, schedule: Q04DX002 (ip), vehicle: saline 104 % of control

Nc1ccc2c(c1)C(=O)c1cc([N+](=O)[O-])ccc1-2
inactive: dose: 25.0 mg/kg/injection, schedule: Q01DX001 (ip), vehicle: Klucel (hydroxypropylcellulose) (HPC) 97 % of control | dose: 50.0 mg/kg/injection, schedule: Q01DX001 (ip), vehicle: Klucel (hydroxypropylcellulose) (HPC) 90 % of control | [7] 94 % of control

CC(=O)Nc1ccc(NC(=O)c2cccc(F)c2)cc1
inactive: [8] 86 % of control | [9] 102 % of control | [10] 91 % of control

C(=Nc1ccc2c(c1)Cc1ccccc1-2)c1ccnc2ccccc12
inactive: [8] 97 % of control | [11] 92 % of control | [9] 100 % of control | [12] 90 % of control | [10] 97 % of control | [13] 94 % of control

O=c1[nH]c2ccccc2c(=O)n1CCCN1CCN(c2cccc(Cl)c2)CC1
inactive: [8] 108 % of control | dose: 100.0 mg/kg/injection, schedule: Q04DX002 (ip), vehicle: Klucel (hydroxypropylcellulose) (HPC) 111 % of control | [9] 108 % of control | dose: 200.0 mg/kg/injection, schedule: Q04DX002 (ip), vehicle: Klucel (hydroxypropylcellulose) (HPC) 114 % of control | [10] 108 % of control | dose: 400.0 mg/kg/injection, schedule: Q04DX002 (ip), vehicle: Klucel (hydroxypropylcellulose) (HPC) 104 % of control

O=C(Nc1ccc(Cl)c([N+](=O)[O-])c1)Oc1ccccc1F
inactive: [8] 92 % of control | [11] 97 % of control | [9] 101 % of control | [12] 97 % of control | [13] 96 % of control

NC(=O)OCC1OC(n2cnc3c(=O)[nH]c(N)nc32)C(O)C1O (centres undefined)
inactive: dose: 25.0 mg/kg/injection, schedule: Q01DX009 (ip), vehicle: Klucel (hydroxypropylcellulose) (HPC) 94 % of control | dose: 50.0 mg/kg/injection, schedule: Q01DX009 (ip), vehicle: Klucel (hydroxypropylcellulose) (HPC) 98 % of control | dose: 100.0 mg/kg/injection, schedule: Q01DX005 (ip), vehicle: saline 105 % of control | [8] 94 % of control | dose: 200.0 mg/kg/injection, schedule: Q01DX005 (ip), vehicle: saline 92 % of control

CC12CCC(=O)C=C1CCC1C2C(O)CC2(C)C1CCC2(O)C(=O)CSc1ncnc2nc[nH]c12 (centres undefined)
inactive: [14] 96 % of control | [15] 94 % of control and 108 % of control | [16] 105 % of control and 108 % of control | [17] 97 % of control and 102 % of control

Nc1ncnc2c1ncn2C1OCC(CO)C1O (centres undefined)
inactive: dose: 33.0 mg/kg/injection, schedule: Q01DX001 (ip), vehicle: carboxymethylcellulose (CMC) 97 % of control | dose: 66.5 mg/kg/injection, schedule: Q01DX001 (ip), vehicle: carboxymethylcellulose (CMC) 108 % of control | [4] 107 % of control | dose: 133.0 mg/kg/injection, schedule: Q01DX001 (ip), vehicle: carboxymethylcellulose (CMC) 97 % of control | [5] 101 % of control | [6] 107 % of control

O=P(CCCl)(OCCCl)OCCCl
inactive: [1] 94 % of control | [2] 109 % of control | [3] 109 % of control

CC1(C)CC2CCC1(Cl)CC2Cl (centres undefined)
inactive: dose: 50.0 mg/kg/injection, schedule: Q01DX009 (ip), vehicle: saline + alcohol 100 % of control | dose: 100.0 mg/kg/injection, schedule: Q01DX009 (ip), vehicle: saline + alcohol 93 % of control

N=C(N)c1ccc(N=NNc2ccc(C(=N)N)cc2)cc1 (tested in a mixture with another compound)
inactive: [4] 93 % of control | [5] 98 % of control

Nc1nc2c(c(=O)[nH]1)N=C(CNc1ccc(C(=O)NC(CCC(=O)O)C(=O)O)cc1)CN2 (centres undefined)
inactive: dose: 2.0 mg/kg/injection, schedule: Q01DX009 (ip), vehicle: sodium bicarbonate 109 % of control | dose: 4.0 mg/kg/injection, schedule: Q01DX009 (ip), vehicle: sodium bicarbonate 115 % of control | dose: 8.0 mg/kg/injection, schedule: Q01DX009 (ip), vehicle: sodium bicarbonate 116 % of control | dose: 16.0 mg/kg/injection, schedule: Q01DX009 (ip), vehicle: sodium bicarbonate 115 % of control

CS(=O)(=O)OCC(O)C(O)C(O)C(O)COS(C)(=O)=O (centres undefined)
inactive: dose: 100.0 mg/kg/injection, schedule: Q01DX001 (ip), vehicle: carboxymethylcellulose (CMC) 98 % of control | dose: 200.0 mg/kg/injection, schedule: Q01DX001 (ip), vehicle: carboxymethylcellulose (CMC) 92 % of control | dose: 400.0 mg/kg/injection, schedule: Q01DX001 (ip), vehicle: carboxymethylcellulose (CMC) 103 % of control

CN(C)N=Nc1cn(C)c(=O)[nH]c1=O
inactive: dose: 50.0 mg/kg/injection, schedule: Q04DX003 (ip), vehicle: water 114 % of control | dose: 400.0 mg/kg/injection, schedule: Q04DX003 (ip), vehicle: water 112 % of control

O=Cc1ccc(OCc2cccc([N+](=O)[O-])c2)cc1
inactive: [7] 113 % of control | dose: 200.0 mg/kg/injection, schedule: Q01DX001 (ip), vehicle: Klucel (hydroxypropylcellulose) (HPC) 100 % of control | dose: 400.0 mg/kg/injection, schedule: Q01DX001 (ip), vehicle: Klucel (hydroxypropylcellulose) (HPC) 87 % of control

CC(=O)OC1CCC2C3C(C)C4(O)C=CCCC(C)(O4)C3CCC12C (centres undefined)
inactive: [14] 100 % of control | [15] 89 % of control | [16] 96 % of control | [17] 105 % of control

CC[N+](C)(C)CC(C)C
inactive: dose: 75.0 mg/kg/injection, schedule: Q01DX001 (ip), vehicle: saline 104 % of control | dose: 150.0 mg/kg/injection, schedule: Q01DX001 (ip), vehicle: saline 107 % of control

CN(C)CCC=C1c2ccccc2C=Cc2ccccc21
inactive: dose: 3.12 mg/kg/injection, schedule: Q01DX009 (ip), vehicle: saline 98 % of control | dose: 6.25 mg/kg/injection, schedule: Q01DX009 (ip), vehicle: saline 93 % of control and 104 % of control | dose: 12.5 mg/kg/injection, schedule: Q01DX009 (ip), vehicle: saline 107 % of control and 96 % of control | dose: 25.0 mg/kg/injection, schedule: Q01DX009 (ip), vehicle: saline 98 % of control and 101 % of control | dose: 25.0 mg/kg/injection, schedule: Q04DX003 (ip), vehicle: saline 112 % of control and 103 % of control | dose: 50.0 mg/kg/injection, schedule: Q01DX009 (ip), vehicle: saline 109 % of control | dose: 50.0 mg/kg/injection, schedule: Q04DX003 (ip), vehicle: saline 98 % of control and 105 % of control

Fc1ccc(N=C2c3ccccc3-c3ccccc32)cc1
inactive: [1] 93 % of control | [2] 93 % of control | [3] 95 % of control

CCCCCSc1cccc(N)c1
inactive: dose: 100.0 mg/kg/injection, schedule: Q01DX001 (ip), vehicle: saline with Tween-80 112 % of control | dose: 200.0 mg/kg/injection, schedule: Q01DX001 (ip), vehicle: saline with Tween-80 102 % of control | dose: 400.0 mg/kg/injection, schedule: Q01DX001 (ip), vehicle: saline with Tween-80 97 % of control

CCCCCCCCCCOc1ccc(/C=N\N=C\c2ccc(OCCCCCCCCCC)cc2)cc1
inactive: dose: 100.0 mg/kg/injection, schedule: Q01DX009 (ip), vehicle: saline with Tween-80 88 % of control | dose: 200.0 mg/kg/injection, schedule: Q01DX009 (ip), vehicle: saline with Tween-80 97 % of control | dose: 400.0 mg/kg/injection, schedule: Q01DX009 (ip), vehicle: saline with Tween-80 95 % of control

Cc1c(Br)c(=O)[nH]c2c(C)cccc12
inactive: [4] 98 % of control | [5] 98 % of control | [6] 96 % of control

CC(=O)OC1CCC2(C)C(CCC3C4CCC(C(C)OC(C)=O)C4NC(=O)CC32)C1 (centres undefined)
inactive: dose: 75.0 mg/kg/injection, schedule: Q01DX001 (ip), vehicle: other 104 % of control | dose: 150.0 mg/kg/injection, schedule: Q01DX001 (ip), vehicle: other 101 % of control | dose: 300.0 mg/kg/injection, schedule: Q01DX001 (ip), vehicle: other 93 % of control
